BindingDB's records for doi:10.1016/S0960-894X(01)00040-3 (Glaxosmithkline, 2001)

Target: Tyrosine--tRNA ligase (Staphylococcus aureus)
Assay: Inhibitory activity against Staphylococcus aureus tyrosyl tRNA synthetase (YRS) using aminoacylation assay

| IC50 [nM] | SMILES |
| --- | --- |
| 0.8 | CCCCOC(=O)[C@@H](NC(=O)[C@@H](N)Cc1ccc(O)cc1)[C@@H]1O[C@H](C)[C@H](O)[C@H](O)[C@H]1O [[2-Amino-3-((S)-4-hydroxy-phenyl)-propionylamino]-((2S,3R,4S,5R,6R)-3,4,5-trihydroxy-6-methyl-tetrahydro-pyran-2-yl)-acetic acid (S)-butyl ester] |
| 190 | N[C@@H](Cc1ccc(O)cc1)C(=O)NC(C(=O)O)[C@@H]1O[C@H](CO)[C@H](O)[C@H](O)[C@H]1O (stereo partly drawn) [[2-Amino-3-((S)-4-hydroxy-phenyl)-propionylamino]-((2S,3R,4R,5R,6R)-3,4,5-trihydroxy-6-hydroxymethyl-tetrahydro-pyran-2-yl)-acetic acid] |
| 3.6 | CCCCOC(=O)C(NC(=O)[C@@H](N)Cc1ccc(O)cc1)[C@H]1C[C@@H](O)[C@@H](O)[C@@H](C)O1 (stereo partly drawn) [[2-Amino-3-((S)-4-hydroxy-phenyl)-propionylamino]-((2R,4R,5R,6R)-4,5-dihydroxy-6-methyl-tetrahydro-pyran-2-yl)-acetic acid butyl ester] |
